Assay results: patent US20110009381A1, “SOLUBILIZED THIAZOLOPYRIDINES” (Sirtis Pharmaceuticals, Inc., priority 2007, published 2011)

target: T1, SIRT1 (Homo sapiens, UniProt Q96EB6); experiment: Mass spectrometry based assay to identify modulators of SIRT1 activity (deacetylation of p53-based acetylated peptide substrate); assay type: biochemical; settings: 10 nM SIRT1, 0.5 μM peptide substrate, 120 μM βNAD+, 25 minutes at 25° C.
T1 sequence (Q96EB6 1-747): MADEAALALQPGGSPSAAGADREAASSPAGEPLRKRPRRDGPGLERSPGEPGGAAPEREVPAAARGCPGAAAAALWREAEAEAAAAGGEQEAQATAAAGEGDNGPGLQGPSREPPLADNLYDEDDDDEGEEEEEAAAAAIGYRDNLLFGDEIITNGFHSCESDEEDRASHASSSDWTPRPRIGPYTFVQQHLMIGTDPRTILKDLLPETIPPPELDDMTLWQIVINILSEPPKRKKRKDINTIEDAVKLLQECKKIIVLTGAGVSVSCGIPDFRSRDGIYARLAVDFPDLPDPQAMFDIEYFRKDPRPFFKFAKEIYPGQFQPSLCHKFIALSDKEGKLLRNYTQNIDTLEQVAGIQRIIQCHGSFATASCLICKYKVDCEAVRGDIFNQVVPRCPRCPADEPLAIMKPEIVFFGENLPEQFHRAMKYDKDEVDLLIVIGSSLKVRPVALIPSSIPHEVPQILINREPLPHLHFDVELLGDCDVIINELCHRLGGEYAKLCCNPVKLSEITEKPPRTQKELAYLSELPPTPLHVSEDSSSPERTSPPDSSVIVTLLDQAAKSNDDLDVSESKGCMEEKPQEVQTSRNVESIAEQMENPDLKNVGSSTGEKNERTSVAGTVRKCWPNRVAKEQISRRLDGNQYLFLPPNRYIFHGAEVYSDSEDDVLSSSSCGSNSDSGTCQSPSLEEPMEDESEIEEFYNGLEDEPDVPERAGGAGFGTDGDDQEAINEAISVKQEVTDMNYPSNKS
From the text: A mass spectrometry based assay was used to identify modulators of SIRT1 activity. The mass spectrometry based assay utilizes a peptide having 20 amino acid residues as follows: Ac-EE-K(biotin)-GQSTSSHSK(Ac)NleSTEG-K(5TMR)-EE-NH2 (SEQ ID NO: 1) wherein K(Ac) is an acetylated lysine residue and Nle is a norleucine. The peptide is labeled with the fluorophore 5TMR (excitation 540 nm/emission 580 nm) at the C-terminus. The sequence of the peptide substrate is based on p53 with several modifications. In addition, the methionine residue naturally present in the sequence was replaced with the norleucine because the methionine may be susceptible to oxidation during synthesis and purification.
The mass spectrometry assay is conducted as follows: 0.5 μM peptide substrate and 120 μM βNAD^+ is incubated with 10 nM SIRT1 for 25 minutes at 25° C. in a reaction buffer (50 mM Tris-acetate pH 8, 137 mM NaCl, 2.7 mM KCl, 1 mM MgCl2, 5 mM DTT, 0.05% BSA). Test compounds may be added to the reaction as described above. The SirT1 gene is cloned into a T7-promoter containing vector and transformed into BL21(DE3). After the 25 minute incubation with SIRT1, 10 μL of 10% formic acid is added to stop the reaction. Reactions are sealed and frozen for later mass spec analysis. Determination of the mass of the substrate peptide allows for precise determination of the degree of acetylation (i.e. starting material) as compared to deacetylated peptide (product).
A control for inhibition of sirtuin activity is conducted by adding 1 μL of 500 mM nicotinamide as a negative control at the start of the reaction (e.g., permits determination of maximum sirtuin inhibition). A control for activation of sirtuin activity is conducted using 10 nM of sirtuin protein, with 1 μL of DMSO in place of compound, to determine the amount of deacetylation of the substrate at a given timepoint within the linear range of the assay. This timepoint is the same as that used for test compounds and, within the linear range, the endpoint represents a change in velocity.
For the above assay, SIRT1 protein was expressed and purified as follows. The SirT1 gene was cloned into a T7-promoter containing vector and transformed into BL21(DE3). The protein was expressed by induction with 1 mM IPTG as an N-terminal His-tag fusion protein at 18° C. overnight and harvested at 30,000×g. Cells were lysed with lysozyme in lysis buffer (50 mM Tris-HCl, 2 mM Tris[2-carboxyethyl]phosphine (TCEP), 10 μM ZnCl2, 200 mM NaCl) and further treated with sonication for 10 min for complete lysis. The protein was purified over a Ni-NTA column (Amersham) and fractions containing pure protein were pooled, concentrated and run over a sizing column (Sephadex S200 26/60 global). The peak containing soluble protein was collected and run on an Ion-exchange column (MonoQ). Gradient elution (200 mM-500 mM NaCl) yielded pure protein. This protein was concentrated and dialyzed against dialysis buffer (20 mM Tris-HCl, 2 mM TCEP) overnight. The protein was aliquoted and frozen at −80° C. until further use.
Sirtuin modulating compounds that activated SIRT1 were identified using the assay described above and are shown below in Table 1. The EC1-5 values for the activating compounds are represented by A′ (EC1.5<250 nM), A (EC1.5≧250 nM and ≦1 uM), B (EC1.5>1 and ≦10 uM), or C (EC1.5>10 uM). The percent maximum fold activation is represented by A (Fold activation≧300%), B (Fold Activation≧150% and <300%), or C (Fold Activation<150%).

Q: With `COCCN(C)c1cc(C(=O)Nc2ccccc2-c2nc3cccnc3s2)nc(-c2ccccc2)n1` [Compound 47] as the compound, how does the “FOLD ACT. (percent maximum fold activation)” value read?
A: Its value is “A (Fold activation≧300%)”.

Q: For `O=C(Nc1ccccc1-c1nc2cccnc2s1)c1cc(NCCN2CCNCC2)nc(-c2ccccc2)n1` [Compound 48], which “FOLD ACT. (percent maximum fold activation)” value is on record?
A: The value was “A (Fold activation≧300%)”.

Q: How did the “FOLD ACT. (percent maximum fold activation)” value turn out when `O=C(Nc1ccccc1-c1nc2cccnc2s1)c1cc(NC2CCNCC2)nc(-c2ccccc2)n1` [Compound 49] was run?
A: The value was “A (Fold activation≧300%)”.

Q: `COCCN(C)CCOc1cc(C(=O)Nc2ccccc2-c2nc3cccnc3s2)nc(-c2ccccc2)c1` [Compound 50] was tested. Which “FOLD ACT. (percent maximum fold activation)” value did it give?
A: Its value is “A (Fold activation≧300%)”.

Q: How did the “FOLD ACT. (percent maximum fold activation)” value turn out when `CC(=O)NCCNc1cc(C(=O)Nc2ccccc2-c2nc3cccnc3s2)nc(-c2ccccc2)n1` [Compound 51] was run?
A: Its value is “A (Fold activation≧300%)”.

Q: For `CC(C)NCCNc1cc(C(=O)Nc2ccccc2-c2nc3cccnc3s2)nc(-c2ccccc2)n1` [Compound 52], which “FOLD ACT. (percent maximum fold activation)” value is on record?
A: The value was “A (Fold activation≧300%)”.

Q: With `Cc1nc(CCNc2cc(C(=O)Nc3ccccc3-c3nc4cccnc4s3)nc(-c3ccccc3)n2)cs1` [Compound 53] as the compound, how does the “FOLD ACT. (percent maximum fold activation)” value read?
A: The value was “B (Fold Activation≧150% and <300%)”.

Q: `O=C(Nc1ccccc1-c1nc2cccnc2s1)c1cc(NCc2ccccc2)nc(-c2ccccc2)n1` [Compound 54] was tested. Which “FOLD ACT. (percent maximum fold activation)” value did it give?
A: The value was “C (Fold Activation<150%)”.

Q: How did the “FOLD ACT. (percent maximum fold activation)” value turn out when `O=C(Nc1ccccc1-c1nc2cccnc2s1)c1cc(NCc2ccccn2)nc(-c2ccccc2)n1` [Compound 55] was run?
A: Its value is “B (Fold Activation≧150% and <300%)”.

Q: For `O=C(Nc1ccccc1-c1nc2ccncc2s1)c1cc(NCCN2CCCC2)nc(-c2ccccc2)n1` [Compound 56], which “FOLD ACT. (percent maximum fold activation)” value is on record?
A: Its value is “A (Fold activation≧300%)”.

Q: For `O=C(Nc1ccccc1-c1nc2ccncc2s1)c1cc(NCc2ccccn2)nc(-c2ccccc2)n1` [Compound 57], which “FOLD ACT. (percent maximum fold activation)” value is on record?
A: The value was “A (Fold activation≧300%)”.

Q: How did the “FOLD ACT. (percent maximum fold activation)” value turn out when `O=C(Nc1ccccc1-c1nc2cccnc2s1)c1cc(NCc2cccnc2)nc(-c2ccccc2)n1` [Compound 58] was run?
A: The value was “A (Fold activation≧300%)”.

Q: `O=C(Nc1ccccc1-c1nc2cccnc2s1)c1cc(NCc2ccncc2)nc(-c2ccccc2)n1` [Compound 59] was tested. Which “FOLD ACT. (percent maximum fold activation)” value did it give?
A: The value was “A (Fold activation≧300%)”.

Q: Which “FOLD ACT. (percent maximum fold activation)” value does the source give for `O=C(Nc1ccccc1-c1nc2cccnc2s1)c1cc(NCCNc2ccccc2)nc(-c2ccccc2)n1` [Compound 60] here?
A: Its value is “C (Fold Activation<150%)”.

Q: How did the “FOLD ACT. (percent maximum fold activation)” value turn out when `Cl.O=C(Nc1ccccc1-c1nc2cccnc2s1)c1cc(NCCN2CCOCC2)nc(-c2ccccc2)n1` [Compound 61] was run?
A: The value was “A (Fold activation≧300%)”.

same assay, conditions: SIRT1 activation; 10 nM SIRT1, 0.5 μM peptide substrate, 120 μM βNAD+, 25 minutes at 25° C.

Q: How did the EC1.5 turn out when `COCCN(C)c1cc(C(=O)Nc2ccccc2-c2nc3cccnc3s2)nc(-c2ccccc2)n1` [Compound 47] was run?
A: The EC1.5 was “A′ (EC1.5<250 nM)”.

Q: How did the EC1.5 turn out when `O=C(Nc1ccccc1-c1nc2cccnc2s1)c1cc(NCCN2CCNCC2)nc(-c2ccccc2)n1` [Compound 48] was run?
A: Its EC1.5 is “A′ (EC1.5<250 nM)”.

Q: How did the EC1.5 turn out when `O=C(Nc1ccccc1-c1nc2cccnc2s1)c1cc(NC2CCNCC2)nc(-c2ccccc2)n1` [Compound 49] was run?
A: Its EC1.5 is “A′ (EC1.5<250 nM)”.

Q: `COCCN(C)CCOc1cc(C(=O)Nc2ccccc2-c2nc3cccnc3s2)nc(-c2ccccc2)c1` [Compound 50] was tested. Which EC1.5 did it give?
A: Its EC1.5 is “A′ (EC1.5<250 nM)”.

Q: Which EC1.5 does the source give for `CC(=O)NCCNc1cc(C(=O)Nc2ccccc2-c2nc3cccnc3s2)nc(-c2ccccc2)n1` [Compound 51] here?
A: The EC1.5 was “A′ (EC1.5<250 nM)”.

Q: `CC(C)NCCNc1cc(C(=O)Nc2ccccc2-c2nc3cccnc3s2)nc(-c2ccccc2)n1` [Compound 52] was tested. Which EC1.5 did it give?
A: Its EC1.5 is “A (EC1.5≧250 nM and ≦1 uM)”.

Q: How did the EC1.5 turn out when `Cc1nc(CCNc2cc(C(=O)Nc3ccccc3-c3nc4cccnc4s3)nc(-c3ccccc3)n2)cs1` [Compound 53] was run?
A: The EC1.5 was “A (EC1.5≧250 nM and ≦1 uM)”.

Q: With `O=C(Nc1ccccc1-c1nc2cccnc2s1)c1cc(NCc2ccccc2)nc(-c2ccccc2)n1` [Compound 54] as the compound, how does the EC1.5 read?
A: The EC1.5 was “C (EC1.5>10 uM)”.

Q: How did the EC1.5 turn out when `O=C(Nc1ccccc1-c1nc2cccnc2s1)c1cc(NCc2ccccn2)nc(-c2ccccc2)n1` [Compound 55] was run?
A: The EC1.5 was “A (EC1.5≧250 nM and ≦1 uM)”.

Q: Which EC1.5 does the source give for `O=C(Nc1ccccc1-c1nc2ccncc2s1)c1cc(NCCN2CCCC2)nc(-c2ccccc2)n1` [Compound 56] here?
A: The EC1.5 was “A′ (EC1.5<250 nM)”.

Q: `O=C(Nc1ccccc1-c1nc2ccncc2s1)c1cc(NCc2ccccn2)nc(-c2ccccc2)n1` [Compound 57] was tested. Which EC1.5 did it give?
A: The EC1.5 was “A (EC1.5≧250 nM and ≦1 uM)”.

Q: For `O=C(Nc1ccccc1-c1nc2cccnc2s1)c1cc(NCc2cccnc2)nc(-c2ccccc2)n1` [Compound 58], which EC1.5 is on record?
A: Its EC1.5 is “A (EC1.5≧250 nM and ≦1 uM)”.

Q: How did the EC1.5 turn out when `O=C(Nc1ccccc1-c1nc2cccnc2s1)c1cc(NCc2ccncc2)nc(-c2ccccc2)n1` [Compound 59] was run?
A: Its EC1.5 is “A (EC1.5≧250 nM and ≦1 uM)”.

Q: How did the EC1.5 turn out when `O=C(Nc1ccccc1-c1nc2cccnc2s1)c1cc(NCCNc2ccccc2)nc(-c2ccccc2)n1` [Compound 60] was run?
A: Its EC1.5 is “C (EC1.5>10 uM)”.

Q: How did the EC1.5 turn out when `Cl.O=C(Nc1ccccc1-c1nc2cccnc2s1)c1cc(NCCN2CCOCC2)nc(-c2ccccc2)n1` [Compound 61] was run?
A: Its EC1.5 is “A′ (EC1.5<250 nM)”.
